Test systems include HOP-62 NSCLC; HCC-2998 colon; UO-31 renal; SR leukemia; EKVX NSCLC; MDA-MB-231 breast; NCI-H522 lung; A498 renal; CCRF-CEM leukemia; OVCAR-8 ovarian.
Common to all, as to test: inhibition of tumour cell growth, NCI panel, 48 h

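Grown in 96-well plates, cells were treated for 48 hours with each compound at five concentrations. Insufficient inhibition: endpoint recorded as highest concentration tested. The concentration for full growth arrest is given as TGI.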

As for `O=[N+]([O-])C(=C(N1CCCCC1)N1CCCCC1)/C(Cl)=C(\Cl)Br`, the TGI was above 100 µM in the assay with HOP-62 NSCLC; 32.3 µM in the assay with HCC-2998 colon; above 100 µM in the assay with UO-31 renal; 30.9 µM in the assay on SR leukemia; 37.1 µM with EKVX NSCLC; 70.6 µM in the assay with MDA-MB-231 breast. For the same compound, the TGI turned out to be 33.9 µM with NCI-H522 lung, 42.2 µM with A498 renal, 42.4 µM in the assay on CCRF-CEM leukemia and 35 µM in the assay with OVCAR-8 ovarian.

With `Cc1nn(C(=O)Cc2ccccc2)c2c1C(c1ccccc1O)SC(N)=N2` (stereo not given), the TGI with HOP-62 NSCLC, in the assay on HCC-2998 colon, in the assay with UO-31 renal, with SR leukemia, in the assay with EKVX NSCLC and with MDA-MB-231 breast was above 100 µM each time. The TGI in the assay with NCI-H522 lung, with A498 renal, in the assay on CCRF-CEM leukemia and in the assay with OVCAR-8 ovarian was above 100 µM in each case.

For `CC(=O)N/N=C1/NN(C(C)=O)C2(S1)C(=O)Nc1ccc(Br)cc12` (stereo not given), the TGI in the assay on HOP-62 NSCLC, in the assay with HCC-2998 colon, in the assay with UO-31 renal, with SR leukemia, with EKVX NSCLC and in the assay on MDA-MB-231 breast was above 100 µM throughout. Moreover, the TGI with NCI-H522 lung, in the assay on A498 renal, in the assay on CCRF-CEM leukemia and in the assay with OVCAR-8 ovarian was above 100 µM throughout.

On to `O=c1cc(/C=C/c2ccc(O)c(O)c2)oc(/C=C/c2ccc(O)c(O)c2)c1`, for which the TGI in the assay with HOP-62 NSCLC is 20.2 µM; in the assay with HCC-2998 colon it was 6.92 µM; in the assay on UO-31 renal it was 15.8 µM; in the assay on SR leukemia it was 8.52 µM; with EKVX NSCLC, 18.1 µM; in the assay on MDA-MB-231 breast it was 21.6 µM. Besides, the TGI amounted to 4 µM in the assay with NCI-H522 lung, 14.4 µM with A498 renal, 7.74 µM in the assay on CCRF-CEM leukemia and 22.4 µM with OVCAR-8 ovarian.

`CCOC1CC(=O)c2c(Br)sc(Br)c21` (stereo not given): the TGI with HOP-62 NSCLC stood at 38.2 µM; in the assay on HCC-2998 colon, 36.9 µM; in the assay on UO-31 renal, 33.5 µM; with SR leukemia, 60.3 µM; in the assay on EKVX NSCLC, 42.7 µM; with MDA-MB-231 breast, 35.9 µM. In addition, the TGI with NCI-H522 lung was determined as 52.7 µM; with A498 renal, 83.3 µM; in the assay with CCRF-CEM leukemia, 50.8 µM; with OVCAR-8 ovarian it was 38.5 µM.

On to `COc1cc2c(cc1OCCCCOc1cc(-c3ccc(F)cc3)nc(C)n1)N=C[C@@H]1CCCN1C2=O`, for which the TGI in the assay with HOP-62 NSCLC amounted to 3.43 µM; with HCC-2998 colon, 0.689 µM; in the assay on UO-31 renal, 12 µM; with SR leukemia it was 0.363 µM; with EKVX NSCLC, 5.18 µM; in the assay with MDA-MB-231 breast it was 5.18 µM. For the same compound, the TGI with NCI-H522 lung came to 2.28 µM; in the assay on A498 renal, 4.6 µM; in the assay with CCRF-CEM leukemia, 3.17 µM; with OVCAR-8 ovarian, 6.6 µM.

`O=C1C(c2c(O)[nH]c3ccc(S(=O)(=O)O)cc23)=Nc2ccccc21`: the TGI with HOP-62 NSCLC, with HCC-2998 colon, with UO-31 renal, with SR leukemia, in the assay with EKVX NSCLC and with MDA-MB-231 breast was above 100 µM throughout. Besides, the TGI in the assay with NCI-H522 lung, with A498 renal, in the assay with CCRF-CEM leukemia and with OVCAR-8 ovarian was above 100 µM each time.

For the compound `CC(=O)NS(=O)(=O)c1ccc(NC(=O)c2c3ccccc3nc3ccccc23)cc1`, the TGI in the assay with HOP-62 NSCLC, in the assay with HCC-2998 colon, with UO-31 renal, with SR leukemia, with EKVX NSCLC and in the assay on MDA-MB-231 breast was above 100 µM in each case. Moreover, the TGI with NCI-H522 lung, in the assay on A498 renal, with CCRF-CEM leukemia and in the assay on OVCAR-8 ovarian was above 100 µM each time.

For the compound `CC(C)=CCc1c2c(c3occ(-c4ccc(O)c(O)c4)c(=O)c3c1O)C=CC(C)(C)O2`, the TGI in the assay on HOP-62 NSCLC was determined as 4.4 µM; in the assay with HCC-2998 colon, 2.45 µM; with UO-31 renal, 2.9 µM; in the assay on SR leukemia, 2.12 µM; in the assay on EKVX NSCLC it was 17.3 µM; in the assay with MDA-MB-231 breast it was 2.97 µM. Further, the TGI worked out at 0.458 µM in the assay on NCI-H522 lung, 29 µM with A498 renal, 2.71 µM in the assay on CCRF-CEM leukemia and 9.31 µM in the assay on OVCAR-8 ovarian.

Regarding `CCNC(=O)Nc1ccccn1`, the TGI in the assay with HOP-62 NSCLC, in the assay with HCC-2998 colon, with UO-31 renal, in the assay on SR leukemia, in the assay on EKVX NSCLC and in the assay with MDA-MB-231 breast was above 100 µM in each case. Besides, the TGI in the assay with NCI-H522 lung, in the assay on A498 renal, in the assay with CCRF-CEM leukemia and in the assay with OVCAR-8 ovarian was above 100 µM throughout.

`O=C(O)[C@@H]1C[C@@H](O)CN1C(=O)OCc1ccccc1`: the TGI in the assay on HOP-62 NSCLC, in the assay with HCC-2998 colon, in the assay on UO-31 renal, in the assay with SR leukemia, in the assay with EKVX NSCLC and in the assay with MDA-MB-231 breast was above 100 µM throughout. Also, the TGI with NCI-H522 lung, in the assay on A498 renal, with CCRF-CEM leukemia and in the assay with OVCAR-8 ovarian was above 100 µM each time.

Regarding `C=C1[C@@H](O)C[C@@]23CC[C@@H]4[C@@]5(C)CC[C@@H](OC(C)=O)C(C)(C)[C@@H]5C[C@@H](OC5OC(COC(C)=O)C(O)C(O)C5O)[C@@]4(C)C2=CC[C@H]3[C@H]1C` (stereo not given in full), the TGI in the assay on HOP-62 NSCLC came to 25.8 µM; with HCC-2998 colon it was 3.88 µM; with UO-31 renal, 28 µM; in the assay on SR leukemia, 5.07 µM; in the assay with EKVX NSCLC, 25.9 µM; with MDA-MB-231 breast, 21.4 µM. The TGI came out at 21.1 µM in the assay with NCI-H522 lung, 23.8 µM in the assay with A498 renal, 9.82 µM in the assay with CCRF-CEM leukemia and 21.8 µM with OVCAR-8 ovarian.

Regarding `CC(C)(C)NC(=O)[C@H]1CC[C@H]2[C@@H]3CC=C4NC(=O)CC[C@]4(C)[C@H]3CC[C@]12C`, the TGI in the assay on HOP-62 NSCLC, in the assay on HCC-2998 colon, in the assay with UO-31 renal, in the assay on SR leukemia, in the assay on EKVX NSCLC and with MDA-MB-231 breast was above 100 µM each time. Besides, the TGI in the assay on NCI-H522 lung, in the assay with A498 renal, in the assay with CCRF-CEM leukemia and with OVCAR-8 ovarian was above 100 µM each time.

With `O=c1c2ncn(C3CC(O)C(CO)O3)c2nnn1Cc1ccccc1[N+](=O)[O-]` (stereo not given), the TGI with HOP-62 NSCLC was above 100 µM; in the assay on HCC-2998 colon it was above 100 µM; with UO-31 renal it was above 100 µM; in the assay on SR leukemia, 45.4 µM; with EKVX NSCLC, above 100 µM; with MDA-MB-231 breast, above 100 µM. Also, the TGI with NCI-H522 lung, in the assay on A498 renal, in the assay with CCRF-CEM leukemia and in the assay on OVCAR-8 ovarian was above 100 µM each time.

In the case of `Cc1ccc(S(=O)(=O)N2CCSCCSCCSCCSCC2)cc1`, the TGI in the assay on HOP-62 NSCLC was above 57 µM; in the assay with HCC-2998 colon, above 100 µM; in the assay on UO-31 renal, above 81.3 µM; in the assay on SR leukemia, above 100 µM; with EKVX NSCLC, above 89.9 µM; in the assay with MDA-MB-231 breast it was 56.6 µM. The TGI in the assay on NCI-H522 lung is above 69.8 µM; with A498 renal, above 74.2 µM; in the assay with CCRF-CEM leukemia, above 100 µM; in the assay on OVCAR-8 ovarian it was 48.4 µM.

Consider `NC(CSCc1ccccc1)C(=O)O` (stereo not given), for which the TGI in the assay on HOP-62 NSCLC, with HCC-2998 colon, with UO-31 renal, with SR leukemia, in the assay on EKVX NSCLC and in the assay with MDA-MB-231 breast was above 100 µM each time. For the same compound, the TGI with NCI-H522 lung, with A498 renal, with CCRF-CEM leukemia and in the assay on OVCAR-8 ovarian was above 100 µM throughout.

`CCCCn1c2c(n(CCCC)c1=S)-c1c(n(CCCC)c(=S)n1CCCC)S[Se][Se]S2`: the TGI with HOP-62 NSCLC was 35.1 µM; in the assay with HCC-2998 colon it was 61.6 µM; in the assay on UO-31 renal, 9.02 µM; in the assay with SR leukemia, above 100 µM; with EKVX NSCLC, 24.3 µM; in the assay with MDA-MB-231 breast, 7.59 µM. Besides, the TGI is 0.479 µM with NCI-H522 lung, above 100 µM with A498 renal, above 46.6 µM with CCRF-CEM leukemia and 29.9 µM in the assay with OVCAR-8 ovarian.

With `C[n+]1c(-c2ccccc2)cc2/c(=C\c3ccc([N+](=O)[O-])cc3)c3ccccc3n21`, the TGI in the assay with HOP-62 NSCLC is 19.3 µM; in the assay with HCC-2998 colon, above 100 µM; in the assay on UO-31 renal it was 35.5 µM; in the assay with SR leukemia it was above 41.7 µM; with EKVX NSCLC, 44.2 µM; with MDA-MB-231 breast it was 16.1 µM. Further, the TGI in the assay with NCI-H522 lung was 2.8 µM; in the assay on A498 renal it was above 100 µM; in the assay on CCRF-CEM leukemia, 8.04 µM; with OVCAR-8 ovarian, above 26 µM.

Turning to `Cc1ccccc1OC(C)C(=O)NN1C(=O)CC(=O)N(c2ccc(Cl)cc2)C1=S` (stereo not given), the TGI was above 100 µM in the assay on HOP-62 NSCLC; 71.9 µM in the assay with HCC-2998 colon; above 100 µM with UO-31 renal; 84.1 µM in the assay on SR leukemia; above 100 µM with EKVX NSCLC; above 100 µM in the assay on MDA-MB-231 breast. The TGI in the assay with NCI-H522 lung was above 100 µM; in the assay on A498 renal, 64.6 µM; with CCRF-CEM leukemia it was 57 µM; in the assay on OVCAR-8 ovarian, above 100 µM.

The values above are taken from PubChem BioAssay (NCI).
